The structures appear in SMILES notation.

18 compounds from patent publication US8158628B2, “Sulfonylated 1,2,3,4-tetrahydropyrrolo[1,2-a]pyrazine compounds and their use as pharmaceuticals” (Gruenenthal GmbH, priority 2009, dated 2012) can be followed below.

One test has as its target T1, human B1R (Homo sapiens, UniProt P46663).
T1 construct: expressed in transfected cells; host or cells: CHO K1 cells (Chinese hamster ovary), stably transfected
T1 sequence (P46663 1-353): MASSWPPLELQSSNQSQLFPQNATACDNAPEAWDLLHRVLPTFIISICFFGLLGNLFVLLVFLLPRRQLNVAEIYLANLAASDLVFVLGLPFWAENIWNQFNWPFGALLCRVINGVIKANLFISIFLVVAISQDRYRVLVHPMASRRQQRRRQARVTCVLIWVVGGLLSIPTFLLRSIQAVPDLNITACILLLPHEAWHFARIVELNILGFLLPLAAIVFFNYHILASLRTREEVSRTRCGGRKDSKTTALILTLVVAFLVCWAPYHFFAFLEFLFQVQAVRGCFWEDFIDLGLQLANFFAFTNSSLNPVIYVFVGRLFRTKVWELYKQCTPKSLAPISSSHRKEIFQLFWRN
Put plainly: FLIPR Ca2+ functional assay, B1R antagonism, human B1R in CHO K1 cells. It counts as cell-based. The settings on record: test substance 10 μM; hB1R CHO K1 cells; agonist Lys-Des-Arg9 bradykinin at EC80; % of maximum achievable inhibition. The procedure, abridged:
(§1)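 IC50 values come from varied compound concentrations applied 10-20 min before an EC80 agonist challenge, with Des-Arg9 bradykinin for rat and Lys-Des-Arg9 bradykinin for human receptor. Ca2+ influx in Fluo-4-loaded CHO K1 transfectants was measured by FLIPR peak fluorescence. Data are % inhibition vs maximum, n=2-3, N>=2.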

A further test addresses T2, B1R of the rat (Rattus norvegicus, UniProt P97583).
T2 construct: expressed in transfected cells; host or cells: CHO K1 cells (Chinese hamster ovary), stably transfected
T2 sequence (P97583 1-337): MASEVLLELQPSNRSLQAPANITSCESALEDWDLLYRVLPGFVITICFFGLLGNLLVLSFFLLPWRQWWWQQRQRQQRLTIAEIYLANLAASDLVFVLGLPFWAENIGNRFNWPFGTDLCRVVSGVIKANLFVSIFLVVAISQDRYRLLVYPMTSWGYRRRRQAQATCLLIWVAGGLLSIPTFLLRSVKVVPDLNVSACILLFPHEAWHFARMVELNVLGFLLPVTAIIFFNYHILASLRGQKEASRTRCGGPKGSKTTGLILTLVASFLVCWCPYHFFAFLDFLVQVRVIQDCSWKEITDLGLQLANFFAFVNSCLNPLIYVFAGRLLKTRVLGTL
Description: FLIPR Ca2+ functional assay, B1R antagonism, rat B1R in CHO K1 cells. Format: cell-based. The conditions noted are these: test substance 10 μM; rB1R CHO K1 cells; agonist Des-Arg9 bradykinin at EC80; % of maximum achievable inhibition. The procedure, abridged: as §1

Regarding `Cc1ccc(S(=O)(=O)N2CCn3cccc3C2CC(=O)NC2CCCc3cc(CN4CCOCC4)ccc32)cc1Cl` (stereo not drawn) [Example 57, 2-[2-[(3-Chloro-4-methyl-phenyl)sulfonyl]-1,2,3,4-tetrahydro-pyrrolo[1,2-a]pyrazin-1-yl]-N-[6-(morpholin-4-yl-methyl)-1,2,3,4-tetrahydro-naphthalen-1-yl]-acetamide], the results for the inhibition at 10 µM at human B1R and at B1R of the rat were 98.5% and 101%, respectively.

For `Cc1ccc(S(=O)(=O)N2CCn3cccc3C2CC(=O)NC2CCc3cc(CN(C)C)ccc3C2)cc1` (stereo not drawn) [Example 58, N-[6-(Dimethylaminomethyl)-1,2,3,4-tetrahydro-naphthalen-2-yl]-2-[2-(p-tolylsulfonyl)-1,2,3,4-tetrahydro-pyrrolo[1,2-a]pyrazin-1-yl]-acetamide], the inhibition at 10 µM on human B1R is 100%; at B1R of the rat, 103%.

On to `CN1CCN(Cc2ccc3c(c2)CCCC3NC(=O)CC2c3cccn3CCN2S(=O)(=O)c2cccc(C(F)(F)F)c2)CC1` (stereo not drawn) [Example 59, N-[6-[(4-Methyl-piperazin-1-yl)-methyl]-1,2,3,4-tetrahydro-naphthalen-1-yl]-2-[2-[[3-(trifluoromethyl)phenyl]sulfonyl]-1,2,3,4-tetrahydro-pyrrolo[1,2-a]pyrazin-1-yl]-acetamide], for which the inhibition at 10 µM at human B1R came out at 99.8%; on B1R of the rat it was 76.2%.

As for `Cc1ccc(S(=O)(=O)N2CCn3cccc3C2CC(=O)NC2CCc3cc(CNC(C)(C)C)ccc3C2)cc1Cl` (stereo not drawn) [Example 60, N-[6-[(tert-Butylamino)-methyl]-1,2,3,4-tetrahydro-naphthalen-2-yl]-2-[2-[(3-chloro-4-methyl-phenyl)sulfonyl]-1,2,3,4-tetrahydro-pyrrolo[1,2-a]pyrazin-1-yl]-acetamide], the inhibition at 10 µM worked out at 99.8% at human B1R and 99.5% on B1R of the rat.

For the compound `Cc1ccc(S(=O)(=O)N2CCn3cccc3C2CC(=O)NC2CCc3cc(CN4CCN(C)CC4)ccc3C2)cc1Cl` (stereo not drawn) [Example 61, 2-[2-[(3-Chloro-4-methyl-phenyl)sulfonyl]-1,2,3,4-tetrahydro-pyrrolo[1,2-a]pyrazin-1-yl]-N-[6-[(4-methyl-piperazin-1-yl)-methyl]-1,2,3,4-tetrahydro-naphthalen-2-yl]-acetamide], the inhibition at 10 µM was 99.7% at human B1R and 100% on B1R of the rat.

Consider `CCC(C)NCc1ccc2c(c1)CCC(NC(=O)CC1c3cccn3CCN1S(=O)(=O)c1ccc(C)cc1)C2` (stereo not drawn) [Example 62, N-[6-[(1-Methyl-propylamino)-methyl]-1,2,3,4-tetrahydro-naphthalen-2-yl]-2-[2-(p-tolylsulfonyl)-1,2,3,4-tetrahydro-pyrrolo[1,2-a]pyrazin-1-yl]-acetamide], for which the inhibition at 10 µM at human B1R is 99.2%; on B1R of the rat it was 98.4%.

For the compound `CCC(C)NCc1ccc2c(c1)CCC(NC(=O)CC1c3cccn3CCN1S(=O)(=O)c1ccc(C)c(Cl)c1)C2` (stereo not drawn) [Example 63, 2-[2-[(3-Chloro-4-methyl-phenyl)sulfonyl]-1,2,3,4-tetrahydro-pyrrolo[1,2-a]pyrazin-1-yl]-N-[6-[(1-methyl-propylamino)-methyl]-1,2,3,4-tetrahydro-naphthalen-2-yl]-acetamide], the inhibition at 10 µM came to 99.7% on human B1R and 91.1% at B1R of the rat.

Consider `CC(C)(C)NCc1ccc2c(c1)CCC(NC(=O)CC1c3cccn3CCN1S(=O)(=O)c1cccc(C(F)(F)F)c1)C2` (stereo not drawn) [Example 64, N-[6-[(tert-Butylamino)-methyl]-1,2,3,4-tetrahydro-naphthalen-2-yl]-2-[2-[[3-(trifluoromethyl)phenyl]sulfonyl]-1,2,3,4-tetrahydro-pyrrolo[1,2-a]pyrazin-1-yl]-acetamide], for which the inhibition at 10 µM was 99.9% on human B1R and 102% on B1R of the rat.

Consider `CCC(C)NCc1ccc2c(c1)CCC(NC(=O)CC1c3cccn3CCN1S(=O)(=O)c1cccc(C(F)(F)F)c1)C2` (stereo not drawn) [Example 65, N-[6-[(1-Methyl-propylamino)-methyl]-1,2,3,4-tetrahydro-naphthalen-2-yl]-2-[2-[[3-(trifluoromethyl)phenyl]sulfonyl]-1,2,3,4-tetrahydro-pyrrolo[1,2-a]pyrazin-1-yl]-acetamide], for which the results for the inhibition at 10 µM on human B1R and on B1R of the rat were 99.1% and 98.7%, respectively.

Take `Cc1ccc(S(=O)(=O)N2CCn3cccc3C2CC(=O)NC2CCc3cc(CN4CCOCC4)ccc3C2)cc1Cl` (stereo not drawn) [Example 66, 2-[2-[(3-Chloro-4-methyl-phenyl)sulfonyl]-1,2,3,4-tetrahydro-pyrrolo[1,2-a]pyrazin-1-yl]-N-[6-(morpholin-4-yl-methyl)-1,2,3,4-tetrahydro-naphthalen-2-yl]-acetamide]: the inhibition at 10 µM on human B1R was 99.9%; on B1R of the rat, 100%.

Take `O=C(CC1c2cccn2CCN1S(=O)(=O)c1cccc(C(F)(F)F)c1)NC1CCc2cc(CN3CCOCC3)ccc2C1` (stereo not drawn) [Example 67, N-[6-(Morpholin-4-yl-methyl)-1,2,3,4-tetrahydro-naphthalen-2-yl]-2-[2-[[3-(trifluoromethyl)phenyl]sulfonyl]-1,2,3,4-tetrahydro-pyrrolo[1,2-a]pyrazin-1-yl]-acetamide]: the values for the inhibition at 10 µM at human B1R and on B1R of the rat were 99.7% and 101%, respectively.

`CN1CCN(Cc2ccc3c(c2)CCC(NC(=O)CC2c4cccn4CCN2S(=O)(=O)c2cccc(C(F)(F)F)c2)C3)CC1` (stereo not drawn) [Example 68, N-[6-[(4-Methyl-piperazin-1-yl)-methyl]-1,2,3,4-tetrahydro-naphthalen-2-yl]-2-[2-[[3-(trifluoromethyl)phenyl]sulfonyl]-1,2,3,4-tetrahydro-pyrrolo[1,2-a]pyrazin-1-yl]-acetamide]: the inhibition at 10 µM was 99.7% at human B1R and 98.9% at B1R of the rat.

For the compound `O=C(CC1c2cccn2CCN1S(=O)(=O)c1cccc(C(F)(F)F)c1)NC1CCc2cc(CN3CCCc4ccccc43)ccc2C1` (stereo not drawn) [Example 69, N-[6-(1,2,3,4-Tetrahydro-quinolin-1-yl-methyl)-1,2,3,4-tetrahydro-naphthalen-2-yl]-2-[2-[[3-(trifluoromethyl)phenyl]sulfonyl]-1,2,3,4-tetrahydro-pyrrolo[1,2-a]pyrazin-1-yl]-acetamide], the inhibition at 10 µM on human B1R turned out to be 62.8%; on B1R of the rat it was 90.7%.

Take `Cc1ccc(S(=O)(=O)N2CCn3cccc3C2CC(=O)NC2CCCc3cc(CNC(C)(C)C)ccc32)cc1Cl` (stereo not drawn) [Example 70, N-[6-[(tert-Butylamino)-methyl]-1,2,3,4-tetrahydro-naphthalen-1-yl]-2-[2-[(3-chloro-4-methyl-phenyl)sulfonyl]-1,2,3,4-tetrahydro-pyrrolo[1,2-a]pyrazin-1-yl]-acetamide]: the inhibition at 10 µM on human B1R turned out to be 99.9%; on B1R of the rat, 102%.

`Cc1ccc(S(=O)(=O)N2CCn3cccc3C2CC(=O)NC2CCc3cc(CN4C5CCCC4CC5)ccc3C2)cc1Cl` (stereo not drawn) [Example 71, N-[6-(8-Azabicyclo[3.2.1]octan-8-yl-methyl)-1,2,3,4-tetrahydro-naphthalen-2-yl]-2-[2-[(3-chloro-4-methyl-phenyl)sulfonyl]-1,2,3,4-tetrahydro-pyrrolo[1,2-a]pyrazin-1-yl]-acetamide]: the inhibition at 10 µM is 99.8% on human B1R and 102% on B1R of the rat.

As for `Cc1ccc(S(=O)(=O)N2CCn3cccc3C2CC(=O)NC2CCCc3cc(CNC(C)(C)C)ccc32)cc1` (stereo not drawn) [Example 72, N-[6-[(tert-Butylamino)-methyl]-1,2,3,4-tetrahydro-naphthalen-1-yl]-2-[2-(p-tolylsulfonyl)-1,2,3,4-tetrahydro-pyrrolo[1,2-a]pyrazin-1-yl]-acetamide], the results for the inhibition at 10 µM at human B1R and on B1R of the rat were 99.9% and 101%, respectively.

Take `Cc1ccc(S(=O)(=O)N2CCn3cccc3C2CC(=O)NC2CCc3cc(CN(C)C(C)(C)C)ccc3C2)cc1` (stereo not drawn) [Example 73, N-[6-[(tert-Butyl-methyl-amino)-methyl]-1,2,3,4-tetrahydro-naphthalen-2-yl]-2-[2-(p-tolylsulfonyl)-1,2,3,4-tetrahydro-pyrrolo[1,2-a]pyrazin-1-yl]-acetamide]: the inhibition at 10 µM was determined as 99.8% at human B1R and 103% at B1R of the rat.

For `Cc1ccc(S(=O)(=O)N2CCn3cccc3C2CC(=O)NC2CCCc3cc(CN(C)C(C)(C)C)ccc32)cc1` (stereo not drawn) [Example 74, N-[6-[(tert-Butyl-methyl-amino)-methyl]-1,2,3,4-tetrahydro-naphthalen-1-yl]-2-[2-(p-tolylsulfonyl)-1,2,3,4-tetrahydro-pyrrolo[1,2-a]pyrazin-1-yl]-acetamide], the inhibition at 10 µM at human B1R stood at 99.7%; at B1R of the rat it was 91.2%.
